The values that follow come from US12268757B2, “Cyclen based compounds, coordination compounds, peptides, pharmaceutical preparation, and use thereof” (USTAV ORGANICKE CHEMIE A BIOCHEMIE AV CR V.V.I., priority 2019, dated 2025).

A short description of data set [1]: Relaxivity of Gd(III) chelates. It counts as physicochemical. How it is done:
Relaxivity of Gd(III) chelate Gd-6 and of a peptide Gly-Phe-(Gd-6)-Gly-NH2 have been measured at 40° C. and 0.5 T in 10 mM MOPS buffer pH=7.0. It is apparent from the data that the relaxivity of the peptide, where the Gd-6 is incorporated within the peptide chain, is higher than the relaxivity of a standalone Gd-6.

The nature of data set [2]: Kinetic inertness: acid-assisted decomplexation followed by HPLC. Format: physicochemical. The settings on record: pH ~2.0, 40° C.; for Peak area of intact chelate: TFA 0.08%, UV 280 nm. How it is done: Stability (kinetic inertness) of the Gd(III) building block Gd-3 prepared in Example 4 was tested by following acid-assisted decomplexation by HPLC. Isocratic elution method was used for analysis. Constant concentration of TFA (0.08%) was maintained in the mobile phase (pH ˜2.0), while methanol content was varied to tune the retention time of the analyte. With increasing retention time (i.e. time spent in the acidic medium), more decomplexation should occur and the amount of intact chelate should decrease mono-exponentially (pseudo first-order reaction conditions), while a peak of free chelator should appear in the chromatogram. The HPLC conditions were as follows: column Kinetex C18, 100×3 mm, 2.6 um; column temperature maintained at 40° C.; mobile phase: TFA (constant 0.08% vol.), MeOH (variable), water; flow-rate 0.6 mL/min; UV detection at 280 nm; injection of 2 uL of 0.5 mM sample.

In the case of “Gd(III) Complex of 2,2′,2″-(10-((2S,3S,4S)-2-carboxy-4-hydroxypyrrolidin-3-yl)-1,4,7,10-tetraazacyclododecane-1,4,7-triyl)triacetic acid [Gd-6]”, the “Relaxivity r1 at 40° C., and 0.5 T” value in data set [1] (10 mM MOPS buffer pH=7.0, calculated r1 = R1/c) was 3.5 mM⁻¹ s⁻¹. In addition, in data set [1] (40° C., 0.5 T, 10 mM MOPS buffer pH=7.0), the “Relaxation time T1” value stood at 1562 ms.
Turning to “Gd(III) Complex of 2,2′,2″-(10-((2S,3S,4S)-1-(2-(9H-fluoren-9-yl)acetoxy)-2-carboxy-4-hydroxypyrrolidin-3-yl)-1,4,7,10-tetraazacyclododecane-1,4,7-triyl)triacetic acid [Gd-3]”, the “Peak area of intact chelate” value in data set [2] (36% methanol in mobile phase, retention time 6.894 min) is 690.9 mAU · s; in data set [2] (37% methanol in mobile phase, retention time 6.072 min), 686.6 mAU · s; in data set [2] (38% methanol in mobile phase, retention time 5.570 min) it was 688.4 mAU · s; in data set [2] (39% methanol in mobile phase, retention time 5.044 min), 685.5 mAU · s; in data set [2] (40% methanol in mobile phase, retention time 4.632 min) it was 681.6 mAU · s. Further, the “Stability (kinetic inertness) under acidic conditions” value in data set [2] (with increasing retention time in TFA 0.08% mobile phase) is “no decrease in the peak area”.
